Read-outs that look alike come from different tables or passages of the source.
Key:
3T3 cells = assay: MTT cell proliferation assay, 3T3 cells; assay type: cell-based, mouse; details: 3T3 fibroblast cells, incubation approximately 64-72 hours
Protocol: (§1) The MTT cell proliferation assay was used to study the cytotoxic properties of the compounds. The assay was performed according to the method described by Roche Molecular Biochemicals, with minor modifications. The assay is based on the cleavage of the tetrazolium salt, MTT, in the presence of an electron-coupling reagent. The water-insoluble formazan salt produced must be solubilized in an additional step. Cells grown in a 96-well tissue culture plate were incubated with the MTT solution for approximately 4 hours. After this incubation period, a water-insoluble formazan dye formed. After solubilization, the formazan dye was quantitated using a scanning multi-well spectrophotometer (ELISA reader). […] The cells were seeded at 5,000-10,000 cells in each well of 96-well plate in 100 μL of fresh culture medium and were allowed to attach overnight. The stock solutions of the compounds were diluted in 100 μL cell culture medium to obtain eight concentrations of each test compound, ranging from 1 nM to 30 μM. […] All optical densities were measured at 490 nm using a Vmax Kinetic Microplate Reader (Molecular Devices). In most cases, the assay was performed in duplicate and the results were presented as a mean percent inhibition to the negative control+SE. The following formula was used to calculate the percent of inhibition: Inhibition (%)=(1−(ODo/OD))×100.
(§2) The compounds were tested against MS751, Z138 and 3T3 cells. The MS751 cell line is derived from a metastasis to lymph node of human cervix from a patient diagnosed with squameous cell carcinoma of the cervix. The Z138 cell line is a mature B-cell acute lymphoblastic leukemia cell line derived from a patient with chronic lumphocytic leukemia. 3T3 cells are standard fibroblast cells; they were originally isolated from Swiss mouse embryo tissue.

MS751 cells = assay: MTT cell proliferation assay, MS751 cells; assay type: cell-based, human; details: incubation approximately 64-72 hours, read-out: MTT Assay IC50 MS 751
Protocol: as §1, §2

Z138 cells = assay: MTT cell proliferation assay, Z138 cells; assay type: cell-based, human
Protocol: as §1, §2

[1] = Homo sapiens, Z-138, incubation approximately 64-72 hours

Nc1ccc([C@H]2C[C@@H]2C(=O)NCc2cc3cc(-c4ccc(C(=O)N5CCC(F)(F)C5)cc4)cc(-c4ccc(F)cc4)c3o2)cn1 [Compound K017, (1S,2S)-2-(6-aminopyridin-3-yl)-N—((5-(4-(3,3-difluoropyrrolidine-1-carbonyl)phenyl)-7-(4-fluorophenyl)benzofuran-2-yl)methyl)cyclopropanecarboxamide]
IC50 (3T3 cells; Mus musculus, NIH3T3): 1 to 5 µM
IC50 (MS751 cells; Homo sapiens): < 1 µM
IC50 (Z138 cells; [1]): < 1 µM

Nc1ccc([C@H]2C[C@@H]2C(=O)NCc2cc3cc(-c4ccc(C(=O)N5CC(F)(F)C5)cc4)cc(-c4ccc(F)cc4)c3o2)cn1 [Compound K018, (1S,2S)-2-(6-aminopyridin-3-yl)-N—((5-(4-(3,3-difluoroazetidine-1-carbonyl)phenyl)-7-(4-fluorophenyl)benzofuran-2-yl)methyl)cyclopropanecarboxamide]
IC50 (3T3 cells; Mus musculus, NIH3T3): 1 to 5 µM
IC50 (MS751 cells; Homo sapiens): < 1 µM
IC50 (Z138 cells; [1]): < 1 µM

Nc1ccc([C@H]2C[C@@H]2C(=O)NCCc2cc3cc(-c4ccc(C(=O)N5CCC(F)(F)CC5)cc4)cc(-c4ccc(F)cc4)c3o2)cn1 [Compound K019, (1S,2S)-2-(6-aminopyridin-3-yl)-N—(2-(5-(4-(4,4-difluoropiperidine-1-carbonyl)phenyl)-7-(4-fluorophenyl)benzofuran-2-yl)ethyl)cyclopropanecarboxamide]
IC50 (3T3 cells; Mus musculus, NIH3T3): 1 to 5 µM
IC50 (MS751 cells; Homo sapiens): < 1 µM
IC50 (Z138 cells; [1]): < 1 µM

Nc1ccc([C@H]2C[C@@H]2C(=O)NCc2cc3cc(-c4ccc(C(=O)N5CC(F)C5)cc4)cc(-c4ccc(F)cc4)c3o2)cn1 [Compound K020, (1S,2S)-2-(6-aminopyridin-3-yl)-N—((5-(4-(3-fluoroazetidine-1-carbonyl)phenyl)-7-(4-fluorophenyl)benzofuran-2-yl)methyl)cyclopropanecarboxamide]
IC50 (3T3 cells; Mus musculus, NIH3T3): 1 to 5 µM
IC50 (MS751 cells; Homo sapiens): < 1 µM
IC50 (Z138 cells; [1]): < 1 µM

Nc1ccc([C@H]2C[C@@H]2C(=O)NCc2nc3cc(-c4ccc(C(=O)N5CCC(F)(F)CC5)cc4)cc(-c4ccc(F)cc4)c3o2)cn1 [Compound K021, (1S,2S)-2-(6-aminopyridin-3-yl)-N—((5-(4-(4,4-difluoropiperidine-1-carbonyl)phenyl)-7-(4-fluorophenyl)benzo[d]oxazol-2-yl)methyl)cyclopropanecarboxamide]
IC50 (3T3 cells; Mus musculus, NIH3T3): > 10 µM
IC50 (MS751 cells; Homo sapiens): > 10 µM
IC50 (Z138 cells; [1]): > 10 µM

Nc1ccc([C@H]2C[C@@H]2C(=O)NCc2cc3cc(-c4ccc(C(=O)N5CCC(F)(F)CC5)cc4)cc(-c4ccc(F)cc4)c3[nH]2)cn1 [Compound K022, (1S,2S)-2-(6-aminopyridin-3-yl)-N—((5-(4-(4,4-difluoropiperidine-1-carbonyl)phenyl)-7-(4-fluorophenyl)-1H-indol-2-yl)methyl)cyclopropanecarboxamide]
IC50 (3T3 cells; Mus musculus, NIH3T3): > 10 µM
IC50 (MS751 cells; Homo sapiens): 1 to 5 µM
IC50 (Z138 cells; [1]): 5 to 10 µM

Cn1c(CNC(=O)[C@H]2C[C@@H]2c2ccc(N)nc2)cc2cc(-c3ccc(C(=O)N4CCC(F)(F)CC4)cc3)cc(-c3ccc(F)cc3)c21 [Compound K023, (1S,2S)-2-(6-aminopyridin-3-yl)-N—((5-(4-(4,4-difluoropiperidine-1-carbonyl)phenyl)-7-(4-fluorophenyl)-1-methyl-1H-indol-2-yl)methyl)cyclopropanecarboxamide]
IC50 (3T3 cells; Mus musculus, NIH3T3): > 10 µM
IC50 (MS751 cells; Homo sapiens): 1 to 5 µM
IC50 (Z138 cells; [1]): 1 to 5 µM

Nc1ccc([C@H]2C[C@@H]2C(=O)NCc2cc3cc(-c4ccc(C(=O)N5CC(F)C5)cc4F)cc(-c4ccc(F)cc4)c3o2)cn1 [Compound K024, (1S,2S)-2-(6-aminopyridin-3-yl)-N—((5-(2-fluoro-4-(3-fluoroazetidine-1-carbonyl)phenyl)-7-(4-fluorophenyl)benzofuran-2-yl)methyl)cyclopropanecarboxamide]
IC50 (3T3 cells; Mus musculus, NIH3T3): < 1 µM
IC50 (MS751 cells; Homo sapiens): < 1 µM
IC50 (Z138 cells; [1]): < 1 µM

Nc1ccc([C@H]2C[C@@H]2C(=O)NCc2cnc(-c3ccc(-c4ccc(C(=O)N5CC(F)(F)C5)cc4)cc3C(F)(F)F)o2)cn1 [Compound K025, (1S,2S)-2-(6-aminopyridin-3-yl)-N—((2-(4′-(3,3-difluoroazetidine-1-carbonyl)-3-(trifluoromethyl)biphenyl-4-yl)oxazol-5-yl)methyl)cyclopropanecarboxamide]
IC50 (3T3 cells; Mus musculus, NIH3T3): > 10 µM
IC50 (MS751 cells; Homo sapiens): 1 to 5 µM
IC50 (Z138 cells; [1]): 1 to 5 µM

[2H]c1c(CNC(=O)[C@H]2C[C@@H]2c2ccc(N)nc2)oc2c(-c3ccc(F)cc3)cc(-c3ccc(C(=O)N4CC(F)C4)cc3)cc12 [Compound K026, (1S,2S)-2-(6-aminopyridin-3-yl)-N—((3-deutero-5-(4-(3-fluoroazetidine-1-carbonyl)phenyl)-7-(4-fluorophenyl)benzofuran-2-yl)methyl)cyclopropanecarboxamide]
IC50 (3T3 cells; Mus musculus, NIH3T3): 1 to 5 µM
IC50 (MS751 cells; Homo sapiens): < 1 µM
IC50 (Z138 cells; [1]): < 1 µM

Nc1ccc([C@H]2C[C@@H]2c2nc(-c3cc4cc(-c5ccc(C(=O)N6CC(F)C6)cc5)cc(-c5ccc(F)cc5)c4o3)co2)cn1 [Compound K029, (4-(2-(2-((1S,2S)-2-(6-aminopyridin-3-yl)cyclopropyl)oxazol-4-yl)-7-(4-fluorophenyl)benzofuran-5-yl)phenyl)(3-fluoroazetidin-1-yl)methanone]
IC50 (3T3 cells; Mus musculus, NIH3T3): > 10 µM
IC50 (MS751 cells; Homo sapiens): 1 to 5 µM
IC50 (Z138 cells; [1]): 1 to 5 µM

(1S,2S)-2-(6-aminopyridin-3-yl)-N—((7-chloro-5-(4-(3,3-difluoroazetidine-1-carbonyl)phenyl)-2,3-dihydrobenzofuran-2-yl)methyl)cyclopropanecarboxamide [Compound K028]
IC50 (3T3 cells): > 10 µM
IC50 (MS751 cells): < 1 µM
IC50 (Z138 cells; incubation approximately 64-72 hours, read-out: MTT Assay IC50 Z-138): < 1 µM

— patent US20180244660A1, “CYCLOPROPYLDERIVATIVES AND THEIR USE AS KINASE INHIBITORS” (Karyopharm Therapeutics Inc., priority 2015, published 2018)
